Values after ≈ are worked out from the molar mass of the structure shown. Counter-ions that a name gives are not always drawn.
Legend:
Assay in all cases: MIC agar dilution test (Denley Multipoint Inoculator; Iso-Sensitest agar)
Assay type in all cases: cell-based
[1] = test system: E. coli 455/7; conditions: Escherichia coli, 37° C, ca. 20 h, read-out: MHK-Werte
Text: (§1) Die minimalen Hemmkonzentrationen (MHK) wurden per Reihenverdünnungsverfahren auf Iso-Sensitest Agar (Oxoid) bestimmt. Für jede Prüfsubstanz wurde eine Reihe von Agarplatten hergestellt, die bei jeweils doppelter Verdünnung abfallende Konzentrationen des Wirkstoffes enthielten. Die Agarplatten wurden mit einem Multipoint-Inokulator (Denley) beimpft. Zum Beimpfen wurden Übernachtkulturen der Erreger verwandt, die zuvor so verdünnt wurden, daß jeder Impfpunkt ca. 10^4 koloniebildende Partikel enthielt. Die beimpften Agarplatten wurden bei 37° C bebrütet, und das Keimwachstum wurde nach ca. 20 Stunden abgelesen. Der MHK-Wert (µg/ml) gibt die niedrigste Wirkstoffkonzentration an, bei der mit bloßem Auge kein Keimwachstum zu erkennen war.
(§2) In der nachfolgenden Tabelle sind die MHK-Werte einiger der erfindungsgemäßen Verbindungen im Vergleich zum entsprechenden Racemat aufgeführt: […]

[2] = test system: Providencia stuartei 12052; conditions: 37° C, ca. 20 h, read-out: MHK-Werte
Text: as §1, §2

[3] = test system: Serrratia marcescene 16040; conditions: 37° C, ca. 20 h, read-out: MHK-Werte
Text: as §1, §2

[4] = test system: Enteroc. faecalis 9790; conditions: 37° C, ca. 20 h, read-out: MHK-Werte
Text: as §1, §2

[5] = test system: Proteus mir. 8223; conditions: 37° C, ca. 20 h, read-out: MHK-Werte
Text: as §1, §2

[6] = test system: Pseudomonas aerog. Ellsworth; conditions: 37° C, ca. 20 h, read-out: MHK-Werte
Text: as §1, §2

[7] = test system: Pseudomonas aerog. Walter; conditions: 37° C, ca. 20 h, read-out: MHK-Werte
Text: as §1, §2

[8] = test system: Enteroc. faecalis 27101; conditions: 37° C, ca. 20 h, read-out: MHK-Werte
Text: as §1, §2

[9] = test system: Providencia stuartei; conditions: Providencia stuartei (strain number not given), 37° C, ca. 20 h, read-out: MHK-Werte
Text: as §1, §2

[10] = test system: Morg. morg. 932; conditions: 37° C, ca. 20 h, read-out: MHK-Werte
Text: as §1, §2

[11] = test system: E. coli A261; conditions: Escherichia coli, 37° C, ca. 20 h, read-out: MHK-Werte
Text: as §1, §2

[12] = test system: Klebsiella pneum. 8085; conditions: 37° C, ca. 20 h, read-out: MHK-Werte
Text: as §1, §2

[13] = test system: Morg. morg. 11006; conditions: 37° C, ca. 20 h, read-out: MHK-Werte
Text: as §1, §2

[14] = test system: Klebsiella pneum. 63; conditions: 37° C, ca. 20 h, read-out: MHK-Werte
Text: as §1, §2

[15] = test system: Proteus mir. 8175; conditions: 37° C, ca. 20 h, read-out: MHK-Werte
Text: as §1, §2

[16] = test system: E. coli Neumann; conditions: Escherichia coli, 37° C, ca. 20 h, read-out: MHK-Werte
Text: as §1, §2

[17] = test system: Proteus vulg. 1017; conditions: 37° C, ca. 20 h, read-out: MHK-Werte
Text: as §1, §2

[18] = test system: Staph. aurens FK 422; conditions: 37° C, ca. 20 h, read-out: MHK-Werte
Text: as §1, §2

[19] = test system: Staph. aurens 133; conditions: 37° C, ca. 20 h, read-out: MHK-Werte
Text: as §1, §2

[20] = test system: Staph. aurens 1756; conditions: 37° C, ca. 20 h, read-out: MHK-Werte
Text: as §1, §2

| SMILES | MIC [1] | MIC [2] | MIC [3] | MIC [4] | MIC [5] | MIC [6] | MIC [7] | MIC [8] | MIC [9] | MIC [10] | MIC [11] | MIC [12] | MIC [13] | MIC [14] | MIC [15] | MIC [16] | MIC [17] | MIC [18] | MIC [19] | MIC [20] |
| --- | --- | --- | --- | --- | --- | --- | --- | --- | --- | --- | --- | --- | --- | --- | --- | --- | --- | --- | --- | --- |
| Cc1c(F)c(N2CC[C@H](N)C2)cc2c1c(=O)c(C(=O)O)cn2C1CC1 [Beispiel 5, 7-[S-(3-Amino)-1-pyrrolidinyl]-1-cyclopropyl-6-fluor-1,4-dihydro-5-methyl-4-oxo-3-chinolincarbonsäure-Hydrochlorid] | 2 µg/mL | 4 µg/mL | 2 µg/mL | 0.25 µg/mL | 4 µg/mL | 0.25 µg/mL | 0.5 µg/mL |  |  |  |  |  |  |  |  |  |  |  |  |  |
| N[C@@H]1CCN(c2c(F)cc3c(=O)c(C(=O)O)cn(C4CC4)c3c2F)C1 [Beispiel 4, 7-[R-(3-Amino)-1-pyrrolidinyl]-1-cyclopropyl-6,8-difluor-1,4-dihydro-4-oxo-3-chinolincarbonsäure-Hydrochlorid] | 0.5 µg/mL | 0.5 µg/mL | 1 µg/mL |  | 0.5 µg/mL |  | 0.25 µg/mL |  | 0.0015 µg/mL | 0.0078 µg/mL | 0.0078 µg/mL |  |  |  |  | 0.0078 µg/mL | 0.0078 µg/mL |  |  |  |
| Cc1c(F)c(N2CC[C@@H](N)C2)cc2c1c(=O)c(C(=O)O)cn2C1CC1 [Beispiel 6, 7-[R-(3-Amino)-1-pyrrolidinyl]-1-cyclopropyl-6-fluor-1,4-dihydro-5-methyl-4-oxo-3-chinolincarbonsäure-Hydrochlorid] | 8 µg/mL | 8 µg/mL | 4 µg/mL | 2 µg/mL | 8 µg/mL | 1 µg/mL | 2 µg/mL | 1 µg/mL |  |  |  |  |  |  | 0.5 µg/mL |  |  |  |  |  |
| NC1CCN(c2c(F)cc3c(=O)c(C(=O)O)cn(C4CC4)c3c2F)C1 (racemic) [**), 7-(3-Amino-1-pyrrolidinyl)-6,8-difluor-1-cyclopropyl-1,4-dihydro-4-oxo-chinolincarbonsäure, reference compound] | 0.25 µg/mL (≈ 0.716 µM) | 0.25 µg/mL (≈ 0.716 µM) | 0.5 µg/mL (≈ 1.43 µM) |  | 0.5 µg/mL (≈ 1.43 µM) |  |  |  | 0.0078 µg/mL (≈ 0.0223 µM) | 0.0039 µg/mL (≈ 0.0112 µM) | 0.0039 µg/mL (≈ 0.0112 µM) | 0.0078 µg/mL (≈ 0.0223 µM) | 0.0078 µg/mL (≈ 0.0223 µM) | 0.0078 µg/mL (≈ 0.0223 µM) |  | 0.0039 µg/mL (≈ 0.0112 µM) | 0.0039 µg/mL (≈ 0.0112 µM) |  |  |  |

These reach a lower MIC [5]. Values come first.

| MIC [1] | MIC [2] | MIC [3] | MIC [4] | MIC [5] | MIC [6] | MIC [7] | MIC [8] | MIC [9] | MIC [10] | MIC [11] | MIC [12] | MIC [13] | MIC [14] | MIC [15] | MIC [16] | MIC [17] | MIC [18] | MIC [19] | MIC [20] | SMILES |
| --- | --- | --- | --- | --- | --- | --- | --- | --- | --- | --- | --- | --- | --- | --- | --- | --- | --- | --- | --- | --- |
| 0.25 µg/mL | 0.25 µg/mL | 0.25 µg/mL | 0.06 µg/mL | 0.25 µg/mL | 0.06 µg/mL | 0.06 µg/mL | 0.03 µg/mL | 0.0078 µg/mL | 0.0039 µg/mL | 0.0039 µg/mL | 0.0078 µg/mL | 0.0078 µg/mL | 0.0078 µg/mL | 0.15 µg/mL | 0.0019 µg/mL | 0.0019 µg/mL |  |  |  | N[C@@H]1CCN(c2c(F)cc3c(=O)c(C(=O)O)cn(C4CC4)c3c2Cl)C1 [Beispiel 2, 7-[R-(3-Amino)-1-pyrrolidinyl]-8-chlor-1-cyclopropyl-6-fluor-1,4-dihydro-4-oxo-3-chinolincarbonsäure -Hydrochlorid] |
| 0.25 µg/mL | 0.25 µg/mL | 0.25 µg/mL |  | 0.25 µg/mL | 0.62 µg/mL |  |  | 0.0078 µg/mL | 0.0039 µg/mL | 0.0039 µg/mL | 0.0078 µg/mL | 0.0078 µg/mL | 0.0078 µg/mL |  | 0.0039 µg/mL | 0.0039 µg/mL |  |  |  | N[C@H]1CCN(c2c(F)cc3c(=O)c(C(=O)O)cn(C4CC4)c3c2F)C1 [Beispiel 3, 7-[S-(3-Amino)-1-pyrrolidinyl]-1-cyclopropyl-6,8-difluor-1,4-dihydro-4-oxo-3-chinolincarbonsäure-Hydrochlorid] |
|  |  |  | 0.03 µg/mL | 0.25 µg/mL | 0.03 µg/mL | 0.03 µg/mL | 0.03 µg/mL | 0.0019 µg/mL | 0.0019 µg/mL | 0.0009 µg/mL | 0.0039 µg/mL | 0.0039 µg/mL | 0.0039 µg/mL | 0.0078 µg/mL | ≤ 0.0004 µg/mL | ≤ 0.0004 µg/mL | 0.0078 µg/mL | 0.0078 µg/mL | 0.0078 µg/mL | N[C@H]1CCN(c2c(F)cc3c(=O)c(C(=O)O)cn(C4CC4)c3c2Cl)C1 [Beispiel 1, 7-[S-(3-Amino)-1-pyrrolidinyl]-8-chlor-1-cyclopropyl-6-fluor-1,4-dihydro-4-oxo-3-chinolincarbonsäure-Hydrochlorid] |
|  |  | 0.25 µg/mL (≈ 0.683 µM) | 0.03 µg/mL (≈ 0.082 µM) | 0.25 µg/mL (≈ 0.683 µM) | 0.03 µg/mL (≈ 0.082 µM) | 0.06 µg/mL (≈ 0.164 µM) | 0.03 µg/mL (≈ 0.082 µM) | 0.0039 µg/mL (≈ 0.0107 µM) | 0.0019 µg/mL (≈ 0.00519 µM) | 0.0019 µg/mL (≈ 0.00519 µM) | 0.0039 µg/mL (≈ 0.0107 µM) | 0.0078 µg/mL (≈ 0.0213 µM) | 0.0039 µg/mL (≈ 0.0107 µM) | 0.0078 µg/mL (≈ 0.0213 µM) | 0.0019 µg/mL (≈ 0.00519 µM) | 0.0019 µg/mL (≈ 0.00519 µM) |  |  |  | NC1CCN(c2c(F)cc3c(=O)c(C(=O)O)cn(C4CC4)c3c2Cl)C1 (racemic) [*), 7-(3-Amino-1-pyrrolidinyl)-8-chlor-1-cyclopropyl-6-fluor-1,4-dihydro-4-oxo-3-chinolincarbonsäure, reference compound] |

— patent EP0391169A2, “Enantiomeric pure 7-(3-amino-1-pyrrolidinyl)-chinolon-and-naphthyridon carboxylic acids” (BAYER AG, priority 1989, dated 1990)
